As a reminder, the pIC50 is the negative decadic logarithm of the IC50, by convention in mol/L. In general, IC50 refers to the concentration that gives 50% inhibition.

pIC50: −log10 of the molar value. Activity calls are given as the source filed them. No rule for the calls is given here.

The target in this assay is glucose-6-phosphate dehydrogenase-6-phosphogluconolactonase (Plasmodium falciparum 3D7). In words: inhibition of P. falciparum G6PD activity – biochemical, kinetic NADPH detection, orthogonal assay, dose response (AID 540269). As to conditions: purified PfG6PD-6PGL.
With `O=C1C(Cl)=C(NCCc2ccccc2)C(=O)c2ccccc21`, the negative-log IC50 (pIC50) is 4.15.

For the compound `Cc1ccnc(-n2sc3ccccc3c2=O)n1`, the pIC50 was 4.58.

In the case of `COc1ccc(-n2c(=S)[nH]c3c(sc(=S)n3-c3ccccc3)c2=O)c(OC)c1`, the IC50 was > 80 µM (inactive).

`COc1ccc(C(=O)Nc2nnc(S(=O)(=O)N3CCOCC3)s2)cc1`: the negative-log IC50 (pIC50) was 4.48.

As to `O=C(Nc1nnc(C2CC2)s1)c1ccc(Cl)nc1`, the pIC50 is 4.15.

For `CCN(CC)CCNC(=O)CCCCn1c(=S)[nH]c2c([nH]c3ccc(OC)cc32)c1=O`, the negative logarithm of the IC50 (pIC50) was 4.80.

On to `O=c1[nH]c(NCCO)c(N=Cc2ccccc2)c(=O)[nH]1`, for which the IC50 was > 80 µM (inactive).

In the case of `Cc1ccc(NS(=O)(=O)c2ccccc2Cl)c2c1CC(C)(C)O2`, the IC50 is > 80 µM (inactive).

Take `COc1cccc(/C=N/NC(=O)CSc2cccc3cccnc23)c1`: the pIC50 was 4.66.

With `CN1C(=O)CSc2ccc(NC(=O)N3CCc4ccccc43)cc21`, the IC50 is > 80 µM (inactive).

`O=S(=O)(Nc1cccc2cccnc12)c1ccccc1`: the pIC50 is 4.68.

`COc1cccc(CNc2ccc3[nH]c(=O)[nH]c3c2)c1OCc1ccccc1Cl`: the IC50 is > 80 µM (inactive).

Consider `Cc1cc(C(=O)O)ccc1-n1c(C)cc(C=C2C(=O)c3ccccc3C2=O)c1C`, for which the IC50 is > 80 µM (inactive).

On to `COC(=O)c1cc2c(n1S(=O)(=O)c1ccc(C)cc1)C(=O)C(=O)c1[nH]cc(C(=O)OCc3ccccc3)c1-2`, for which the IC50 was > 80 µM (inactive).

With `Cc1nnc(SCC(=O)c2cc(C)n(-c3ccc4c(c3)OCO4)c2C)s1`, the IC50 was > 80 µM (inactive).

For `CCOC(=O)c1ccc(-n2c(N)c(C(=O)NCC3CCCO3)sc2=S)cc1` (centres undefined), the IC50 was > 80 µM (inactive).

For `CCn1c([N+](=O)[O-])nc2c1c(=O)[nH]c(=O)n2C`, the IC50 was > 80 µM (inactive).

For `CCc1ccc(S(=O)(=O)Nc2cc(SCC(=O)O)c(O)c3ccccc23)cc1`, the negative-log IC50 (pIC50) was 4.35.

As to `COc1cc(O)c(C(=O)O)c(-c2cc(O)c(O)cc2C)c1`, the negative-log IC50 (pIC50) is 4.71.

Take `Cc1ccc(-n2sc3ccccc3c2=O)cc1`: the pIC50 was 4.72.

For the compound `O=C(CNC(=O)c1ccccc1)NCC(=O)OCC(=O)c1ccc([N+](=O)[O-])cc1`, the negative-log IC50 (pIC50) is 4.17.

On to `NS(=O)(=O)c1ccc(N/N=C/c2ccc(O)c(O)c2O)c([N+](=O)[O-])c1`, for which the IC50 is > 80 µM (inactive).

In the case of `O=C(Cn1sc2ccccc2c1=O)Nc1ccccc1`, the negative-log IC50 (pIC50) was 4.84.

As for `CCOC(=O)c1c(C2COc3ccccc3O2)csc1NC(=O)c1ccco1` (centres undefined), the IC50 was > 80 µM (inactive).

As to `O=C(O)c1cccc(N2C(=O)C=CC2=O)c1`, the pIC50 is 4.26.

Take `Cn1c(=O)c2[nH]c(-c3ccccc3)c(O)c2n(C)c1=O`: the IC50 was > 80 µM (inactive).

On to `Nc1[nH]c(=O)[nH]c(=O)c1N=Cc1ccccc1`, for which the pIC50 is 4.69.

For the compound `Cc1ccc2nc(-c3ccc(NC(=S)NC4CC(C)(C)NC(C)(C)C4)cc3)sc2c1`, the IC50 was > 80 µM (inactive).

Turning to `CC1=C(C)CS(=O)N(S(=O)(=O)c2ccc(Cl)cc2)C1` (centres undefined), the IC50 is > 80 µM (inactive).

Regarding `Cc1cc(SCC(=O)N/N=C/c2ccco2)nc2ccccc12`, the IC50 is > 80 µM (inactive).

As to `O=c1c2ccccc2sn1-c1ccc(S(=O)(=O)N2CCCCC2)cc1`, the IC50 is > 80 µM (inactive).

`COc1ccc2c(c1)c(=Cc1ccc(N(C)C)cc1)c1cc(-c3ccccc3)[n+](C)n12`: the negative logarithm of the IC50 (pIC50) is 4.19.

On to `Cc1cc(NC(=O)c2oc3ccccc3c2C)ccc1-n1cnnn1`, for which the negative logarithm of the IC50 (pIC50) is 4.83.

Regarding `NNC(=O)CN1C(c2ccccc2Br)=Nc2ccc(Br)cc2C1c1ccccc1` (centres undefined), the negative logarithm of the IC50 (pIC50) is 4.24.

As to `COc1ccc(-n2sc3ccccc3c2=O)cc1`, the pIC50 is 4.83.

As for `COc1ccc(NC(=S)N(CCC(C)C)C2CCN(C(C)C)CC2)cc1Cl`, the pIC50 was 4.25.

For the compound `CC1=CC(C)(C)Nc2ccc(OC(=O)CN3C(=O)CCC3=O)cc21`, the pIC50 was 4.20.

As for `Cc1[nH]c2ccccc2c1/C=N/NC(=O)c1cccc(S(=O)(=O)Nc2ccccc2Cl)c1`, the negative logarithm of the IC50 (pIC50) was 4.23.

As for `O=C1C=CC(=O)N1c1ccc(N2CCCCC2)cc1`, the pIC50 was 4.43.

In the case of `O=C(CCc1ccc(O)c(O)c1)N/N=C/c1cc2c(cc1[N+](=O)[O-])OCO2`, the pIC50 is 4.78.

As for `Cc1ccc(-n2c(N)c(C(=O)N3CCN(C)CC3)sc2=S)cc1`, the pIC50 is 4.15.

For `S=c1ncc2[nH]c(=S)[nH]c2[nH]1`, the pIC50 was 4.19.

For `CCOC(=O)c1sc(NC(=O)CSc2nnc(Cc3ccccc3)o2)c(C#N)c1C`, the IC50 was > 80 µM (inactive).

As for `Cc1ccc(-c2c(C(=O)N/N=C/c3ccsc3)nnn2-c2nonc2N)cc1`, the negative logarithm of the IC50 (pIC50) was 4.19.

With `COc1cc(N=c2ssnc2Cl)cc(OC)c1OC`, the negative logarithm of the IC50 (pIC50) is 4.47.

`O=C(CNC(=O)c1cccs1)OCC(=O)c1ccc([N+](=O)[O-])cc1`: the IC50 is > 80 µM (inactive).

On to `O=c1[nH]sc2cc(F)ccc12`, for which the pIC50 is 4.25.

Take `OCCN1CCN(C(=S)c2ccc(-c3ccccc3)cc2)CC1`: the IC50 was > 80 µM (inactive).

In the case of `COc1cc(N(C)C)ccc1C=c1c2ccccc2n2c1cc(-c1ccccc1)[n+]2C`, the IC50 is > 80 µM (inactive).

Regarding `Cc1ccc(S(=O)(=O)Oc2cccc(/C=N/Nc3ccc(C(=O)O)cc3)c2)cc1`, the negative logarithm of the IC50 (pIC50) was 4.38.

Take `COCCn1nnnc1C(c1cc2cc(OC)c(OC)cc2[nH]c1=O)N1CCN(c2ccc(O)cc2)CC1` (centres undefined): the pIC50 was 4.52.

Take `OCCN1CCN(C(=S)c2ccc(Cl)c(Cl)c2)CC1`: the IC50 is > 80 µM (inactive).

Turning to `CCNc1cc2c(cc1O)CCC1C2CCC2(C)C(O)CCC12` (centres undefined), the negative logarithm of the IC50 (pIC50) was 4.45.

For the compound `CCCN1CCc2cccc3c2[C@H]1Cc1ccc(O)c(O)c1-3`, the IC50 is > 80 µM (inactive).

With `CN(C)c1ccc(Cc2cc3c(O)ccc(O)c3cc(Cc3ccc(N(C)C)cc3)c2=O)cc1`, the negative-log IC50 (pIC50) is 4.26.

For `Nc1ccc(N(CCO)CCO)cc1`, the IC50 is > 80 µM (inactive).

On to `COc1ccc(-c2cn3cc(C)ccc3n2)cc1Br`, for which the IC50 is > 80 µM (inactive).

Take `O=c1c2ccccc2[se]n1-c1ccccc1`: the negative logarithm of the IC50 (pIC50) is 4.66.

For `O=C(N/N=C/c1cccc([N+](=O)[O-])c1)C(=O)N1CCCCCC1`, the IC50 is > 80 µM (inactive).

For the compound `COc1cccc(C(=O)Nc2nnc(C(C)C)s2)c1`, the pIC50 is 4.67.

Turning to `COC1=C(OC)C(=O)C(Sc2ccc3ccccc3c2)=CC1=O`, the pIC50 was 4.63.

In the case of `COc1ccc(N2C(=O)/C(=C/c3cccs3)NC2=S)cc1`, the pIC50 is 4.40.

Consider `C=CCN1CCc2cccc3c2[C@H]1Cc1ccc(O)c(O)c1-3`, for which the IC50 was > 80 µM (inactive).

On to `CC(C)c1nnc(NC(=O)c2cc3ccccc3o2)s1`, for which the pIC50 is 4.51.

`Cc1ccccc1N/C(SCc1cccc(Br)c1)=C(/C#N)C(N)=O`: the IC50 is > 80 µM (inactive).

As to `CCOc1ccccc1CNc1ccc(O)cc1`, the pIC50 is 4.33.

With `CN1CCN(C(=S)c2ccc(Br)cc2)CC1`, the IC50 is > 80 µM (inactive).

Take `CN(C)c1nc(=NCc2cccs2)ss1`: the IC50 was > 80 µM (inactive).

Turning to `N#Cc1ccc(N=c2ssnc2Cl)cc1`, the pIC50 is 4.27.

The record behind these values is PubChem BioAssay AID540269 (Sanford-Burnham Center for Chemical Genomics, 2011).
